Source: patent publication US6020341A, “Enediyne quinone imines and methods of preparation and use thereof” (priority 1997, dated 2000)
Where two headings read alike, the source gives them in different places.

Assays:
B-16 melanoma = experiment: Antitumor activity against B-16 melanoma in mice (s.c. tumor, i.p. treatment); assay type: in vivo, mouse
Protocol: (§1) ^a Tumor (2 × 10^6 cells) was inoculated s.c. Treatment
(§2) started day 4, QD × 5, i.p.; control had nine mice, and each dose
(§3) two mice; tumor size was evaluated on Day 7 after the beginning of
(§4) started day 4, I.P., QD × 5; control had 3 mice, and each dose had
(§5) mice; Tumor size was evaluated on day 7 after the beginning of treatment.

[1] = test system: Lewis lung adenocarcinoma; experiment: Anticancer activity in BDF mice bearing Lewis lung adenocarcinoma; assay type: in vivo, mouse
Protocol: ^a Tumor (4 × 10^6 cells) was inoculated S.C. Treatment
started on day 4, I.P., QDX5. Control had 4 mice and each dose had 3 mice
Tumor sizes were evaluated on day 7, day 10 and day 14 after beginning of […]

[2] = test system: Chinese hamster lung cells (DC-3F); experiment: Cytotoxicity, DC-3F; assay type: cell-based; conditions: for IC50 / IC90: Cricetulus griseus, DC3F; for IC90: read-out: Cytotoxic Concentration IC90
Description: (§6) | cell growth by 50% (IC50) in μM.

sarcoma 180 = experiment: Antitumor activity against sarcoma 180 in mice (s.c. tumor, i.p. treatment); assay type: in vivo, mouse
Protocol: as §1, §2, §3, §4, §5

HL-60 cells = experiment: Growth inhibition, XTT assay, HL-60; assay type: cell-based; conditions: Homo sapiens
Protocol: (§7) Cells were platted on day 1, drug was added on day 2, and XTT assays (for HL-60, MT-2, MT-4 leukemic cells) or SRB assays (for 833K and SK-Br-3 solid tumor cells) were carried out on day 5.

[3] = test system: Human acute lymphoblastic T cells (CCRF-CEM); experiment: Cytotoxicity, CCRF-CEM; assay type: cell-based; conditions: for IC50 / IC90: Homo sapiens, CCRF-CEM; for IC90: read-out: Cytotoxic Concentration IC90
Description: as §6

solid tumor = experiment: In vivo toxicity and efficacy in tumor bearing mice (Tables 5-7); design: species or system mouse; conditions: i.p., in words
MT2 cells = experiment: Cytotoxicity, MT2; assay type: cell-based; conditions: Table 15, MT2
MT-2 leukemic cells = experiment: Growth inhibition, XTT assay, MT-2; assay type: cell-based; conditions: Table 8, MT-2, XTT
Protocol: as §7

[4] = Table 6, 0.2 mg/kg i.p. QD×5, day 7
[5] = Table 6, 0.5 mg/kg i.p. QD×5, day 7
[6] = Table 6, 2.0 mg/kg i.p. QD×5, day 7

CO[C@@]12[C@H](COC(N)=O)C3=C(C(=O)C(C)=C(N)C3=O)N1C[C@@H]1N[C@@H]12 [mitomycin C]
tumor inhibition (B-16 melanoma; 0.5 mg/kg i.p. QDx5, B-16 melanoma): 24.6% | AVE TUMOR VOLUME (T/C) (B-16 melanoma; [4]): 0.952 | AWC (average weight change) (B-16 melanoma; [4]): -1.9 g | AVE TUMOR VOLUME (T/C) (B-16 melanoma; [5]): 0.756 | AWC (average weight change) (B-16 melanoma; [5]): -0.9 g | AVE TUMOR VOLUME (T/C) (B-16 melanoma; [6]): 0.143 | AWC (average weight change) (B-16 melanoma; [6]): +0.4 g | tumor inhibition ([1]; 0.8 mg/kg i.p. QDx5, day 14, Lewis lung adenocarcinoma): 56.3% | Average Tumor Volume (T/C) ([1]; Table 7, 0.4 mg/kg i.p. QDX5, Day 7): 0.490 | Average Tumor Volume (T/C) ([1]; Table 7, 0.4 mg/kg i.p. QDX5, Day 10): 0.411 | Average Tumor Volume (T/C) ([1]; Table 7, 0.4 mg/kg i.p. QDX5, Day 14): 0.515 | Average Tumor Volume (T/C) ([1]; Table 7, 0.8 mg/kg i.p. QDX5, Day 7): 0.356 | Average Tumor Volume (T/C) ([1]; Table 7, 0.8 mg/kg i.p. QDX5, Day 10): 0.363 | Average Tumor Volume (T/C) ([1]; Table 7, 0.8 mg/kg i.p. QDX5, Day 14): 0.437 | mortality ([1]; Table 7, 2.0 mg/kg i.p. QDX5): All of three mice died on day 8 or day 9 | Average Tumor Volume (T/C) ([1]; Table 7, 2.0 mg/kg i.p. QDX5, Day 7): 0.169 | IC50 ([2]; Table 2, DC-3F, read-out: concentration required to inhibit cell growth by 50% (IC50)): 81 nM | IC50 ([2]; Table 4, DC-3F, read-out: Cytotoxic Concentration IC50): 81.2 nM | IC90 ([2]; Table 4, DC-3F): 374 nM | IC50 ([2]; Table 13, DC-3F, read-out: Cytotoxic Concentration IC50): 59 nM | IC90 ([2]; Table 13, DC-3F): 166 nM | Cytotoxic Concentration IC95 ([2]; Table 4, DC-3F): 629 nM | ratio of IC50 to EQI-6 (in parentheses) ([2]; Table 4, DC-3F, EQI-6 = (1)): 45.1 × | ratio of IC90 to EQI-6 (in parentheses) ([2]; Table 4, DC-3F, EQI-6 = (1)): 34 × | ratio of IC95 to EQI-6 (in parentheses) ([2]; Table 4, DC-3F, EQI-6 = (1)): 31.6 × | Cytotoxic Concentration IC95 ([2]; Table 13, DC-3F): 235 nM | tumor inhibition (sarcoma 180; 0.5 mg/kg i.p. QDx5, sarcoma): 37.5% | AVE TUMOR VOLUME (T/C) (sarcoma 180; [4]): 0.845 | AWC (average weight change) (sarcoma 180; [4]): -0.5 g | AVE TUMOR VOLUME (T/C) (sarcoma 180; [5]): 0.625 | AWC (average weight change) (sarcoma 180; [5]): -2.3 g | AVE TUMOR VOLUME (T/C) (sarcoma 180; [6]): 0.188 | AWC (average weight change) (sarcoma 180; [6]): -1.4 g | IC50 (HL-60 cells; Table 8, HL-60, XTT, growth inhibition, read-out: IC50): 80 nM | IC50 (HL-60 cells; Table 9, HL 60, XTT, 72 h, read-out: Dm): 48 nM | IC50 ([3]; Table 1, CCRF-CEM, read-out: IC50): 140 nM | IC50 ([3]; Table 2, CCRF/CEM, read-out: concentration required to inhibit cell growth by 50% (IC50)): 140 nM | IC50 ([3]; Table 3, CCRF-CEM, read-out: Cytotoxic Concentration IC50): 140 nM | IC90 ([3]; Table 3, CCRF-CEM): 364 nM | IC50 ([3]; Table 14, CCRF-CEM, read-out: Cytotoxic Concentration IC50): 96 nM | IC90 ([3]; Table 14, CCRF-CEM): 370 nM | Cytotoxic Concentration IC95 ([3]; Table 3, CCRF-CEM): 503 nM | ratio of IC50 to EQI-6 (in parentheses) ([3]; Table 3, CCRF-CEM, EQI-6 = (1)): 280 × | ratio of IC90 to EQI-6 (in parentheses) ([3]; Table 3, CCRF-CEM, EQI-6 = (1)): 165 × | ratio of IC95 to EQI-6 (in parentheses) ([3]; Table 3, CCRF-CEM, EQI-6 = (1)): 136 × | Cytotoxic Concentration IC95 ([3]; Table 14, CCRF-CEM): 584 nM | solid tumor growth inhibition / therapeutic efficacy (solid tumor): Therapeutic efficacy in mice for both appeared similar | IC50 (MT2 cells; Homo sapiens, read-out: Cytotoxic Concentration IC50): 169 nM | IC90 (MT2 cells; Homo sapiens, read-out: Cytotoxic Concentration IC90): 398 nM | Cytotoxic Concentration IC95 (MT2 cells): 532 nM | IC50 (MT-2 leukemic cells): 100 nM
